Molecular target: T1, Rat Hepatic V1 Receptors (Rattus norvegicus, UniProt P30560)
T1 construct: Rat liver plasma membranes expressing the vasopressin V1 receptor subtypes; from tissue; host or cells: rat liver plasma membranes
Experiment: Binding Assay to Rat Hepatic V1 Receptors
Settings: Rat Hepatic V1 Receptors (no asterisk)
Procedure: Binding Assay to Rat Hepatic V1 Receptors
Rat liver plasma membranes expressing the vasopressin V1 receptor subtypes are isolated by sucrose density gradient according to the method described by Lesko et al., (1973). These membranes are quickly suspended in 50.0 mM Tris.HCl buffer, pH 7.4, containing 0.2% bovine serum albumin (BSA) and 0.1 mM phenylmethylsulfonylfluoride (PMSF) and kept frozen at -70° C. until used in subsequent binding experiments. For binding experiments, the following is added to the wells of a ninety-six well format microtiter plate: 100 μl of 100.0 mM Tris.HCl buffer containing 10.0 mM MgCl2, 0.2% heat inactivated BSA and a mixture of protease inhibitors: leupeptin, 1.0 mg %; aprotinin, 1.0 mg %, 1,10-phenanthroline,2.0 mg %; trypsin inhibitor, 10.0 mg % and 0.1 mM PMSF, 20.0 μl of [phenylalanyl-3,4,5-^3 H] vasopressin (S.A. 45.1 Ci/mmole) at 0.8 nM, and the reaction initiated by the addition of 80 μl of tissue membranes containing 20 μg of tissue protein. The plates are kept undisturbed on the bench top at room temperature for 120 min. to reach equilibrium. Non-specific samples are assayed in the presence of 0.1 μM of the unlabeled antagonist phenylalanylvasopressin, added in 20.0 μl volume to a final incubation volume of 200 μl. Upon completion of binding, the content of each well is filtered off, using a Brandel® cell Harvester (Gaithersburg, Md.). The radioactivity trapped on the filter disk by the ligand-receptor complex is assessed by liquid scintillation counting in a Packard LS Counter, with an efficiency of 65% for tritium. The data are analyzed for IC50 values by the LUNDON-2 program for competition (LUNDON SOFTWARE, Ohio).

T1 sequence (P30560 whole entry): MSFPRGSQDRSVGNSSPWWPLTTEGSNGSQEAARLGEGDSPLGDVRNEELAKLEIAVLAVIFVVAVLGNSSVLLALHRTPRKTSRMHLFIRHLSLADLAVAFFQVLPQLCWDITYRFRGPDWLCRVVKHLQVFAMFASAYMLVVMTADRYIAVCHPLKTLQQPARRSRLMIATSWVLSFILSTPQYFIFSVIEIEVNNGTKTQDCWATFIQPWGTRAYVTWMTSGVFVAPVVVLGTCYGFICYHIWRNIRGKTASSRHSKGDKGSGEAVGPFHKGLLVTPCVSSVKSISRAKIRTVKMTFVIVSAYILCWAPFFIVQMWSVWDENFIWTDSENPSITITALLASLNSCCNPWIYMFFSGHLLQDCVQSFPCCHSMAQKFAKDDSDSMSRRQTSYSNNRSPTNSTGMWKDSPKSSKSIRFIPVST

IC50: 2 µM
SMILES: O=C(Nc1ccc(C(=O)N2CCc3cn[nH]c3-c3sccc32)cc1)c1ccc(F)cc1Cl [Example 1, N-[4-[(4,5-Dihydropyrazolo[3,4-d]thieno[3,2-b]azepin-6(1H)-yl)carbonyl]phenyl]-2-chloro-4-fluorobenzamide]

— US5719278A, “Tricyclic benzazepine vasopressin antagonists” (American Cyanamid Company, priority 1996, dated 1998)
